# Measurements: ChEMBL document CHEMBL1155237, “Selective inhibitors of the mutant B-Raf pathway: discovery of a potent and orally bioavailable aminoisoquinoline” (J Med Chem, 2009)
# Key:
# [1] = target: RAC-beta serine/threonine-protein kinase (Homo sapiens) (UniProt P31751); assay: Inhibition of AKT2 assessed as enzyme activity at 1 uM relative to untreated control; set-up: scale not given: the % may be the effect or the level left
# [2] = target: Serine/threonine-protein kinase tousled-like 1 (Homo sapiens) (UniProt Q9UKI8); assay: Inhibition of TLK1 assessed as enzyme activity at 1 uM relative to untreated control; set-up: scale not given: the % may be the effect or the level left
# [3] = target: Serine/threonine-protein kinase 25 (Homo sapiens) (UniProt O00506); assay: Inhibition of YSK1 assessed as enzyme activity at 1 uM relative to untreated control; set-up: scale not given: the % may be the effect or the level left
# [4] = target: Ephrin type-A receptor 7 (Homo sapiens) (UniProt Q15375); assay: Inhibition of EPHA7 assessed as enzyme activity at 1 uM relative to untreated control; set-up: scale not given: the % may be the effect or the level left
# [5] = target: Ephrin type-A receptor 4 (Homo sapiens) (UniProt P54764); assay: Inhibition of EPHA4 assessed as enzyme activity at 1 uM relative to untreated control; set-up: scale not given: the % may be the effect or the level left
# [6] = target: MAP kinase-interacting serine/threonine-protein kinase 2 (Homo sapiens) (UniProt Q9HBH9); assay: Inhibition of MKNK2 assessed as enzyme activity at 1 uM relative to untreated control; set-up: scale not given: the % may be the effect or the level left
# [7] = target: Dual specificity mitogen-activated protein kinase kinase 3 (Homo sapiens) (UniProt P46734); assay: Inhibition of MEK3 assessed as enzyme activity at 1 uM relative to untreated control; set-up: scale not given: the % may be the effect or the level left
# [8] = target: 5'-AMP-activated protein kinase catalytic subunit alpha-1 (Homo sapiens) (UniProt Q13131); assay: Inhibition of AMPKalpha1 assessed as enzyme activity at 1 uM relative to untreated control; set-up: scale not given: the % may be the effect or the level left
# [9] = target: Tyrosine-protein kinase Yes (Homo sapiens) (UniProt P07947); assay: Inhibition of YES assessed as enzyme activity at 1 uM relative to untreated control; set-up: scale not given: the % may be the effect or the level left
# [10] = target: Mitogen-activated protein kinase kinase kinase 20 (Homo sapiens) (UniProt Q9NYL2); assay: Inhibition of ZAK assessed as enzyme activity at 1 uM relative to untreated control; set-up: scale not given: the % may be the effect or the level left
# [11] = target: Ephrin type-A receptor 6 (Homo sapiens) (UniProt Q9UF33); assay: Inhibition of EPHA6 assessed as enzyme activity at 1 uM relative to untreated control; set-up: scale not given: the % may be the effect or the level left
# [12] = target: Cyclin-dependent kinase 3 (Homo sapiens) (UniProt Q00526); assay: Inhibition of CDK3 assessed as enzyme activity at 1 uM relative to untreated control; set-up: scale not given: the % may be the effect or the level left
# Sequence of Cyclin-dependent kinase 3 (Homo sapiens) (Q00526 whole entry, looked up): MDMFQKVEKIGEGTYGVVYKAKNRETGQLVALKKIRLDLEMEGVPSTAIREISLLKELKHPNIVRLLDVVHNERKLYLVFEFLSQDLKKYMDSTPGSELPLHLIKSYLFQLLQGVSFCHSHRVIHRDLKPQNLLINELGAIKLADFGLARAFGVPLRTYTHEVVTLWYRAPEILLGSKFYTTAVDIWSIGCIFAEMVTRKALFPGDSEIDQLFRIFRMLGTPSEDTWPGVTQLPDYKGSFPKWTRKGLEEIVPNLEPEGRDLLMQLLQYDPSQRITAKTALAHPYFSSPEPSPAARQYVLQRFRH
# [13] = target: Ephrin type-A receptor 8 (Homo sapiens) (UniProt P29322); assay: Inhibition of EPHA8 assessed as enzyme activity at 1 uM relative to untreated control; set-up: scale not given: the % may be the effect or the level left
# [14] = target: Wee1-like protein kinase 2 (Homo sapiens) (UniProt P0C1S8); assay: Inhibition of WEE2 assessed as enzyme activity at 1 uM relative to untreated control; set-up: scale not given: the % may be the effect or the level left
# [15] = target: Atypical kinase COQ8A, mitochondrial (Homo sapiens) (UniProt Q8NI60); assay: Inhibition of ADCK3 assessed as enzyme activity at 1 uM relative to untreated control; set-up: scale not given: the % may be the effect or the level left
# [16] = target: High affinity nerve growth factor receptor (Homo sapiens) (UniProt P04629); assay: Inhibition of TRKA assessed as enzyme activity at 1 uM relative to untreated control; set-up: scale not given: the % may be the effect or the level left
# Sequence of High affinity nerve growth factor receptor (Homo sapiens) (P04629 33-796 limits assumed): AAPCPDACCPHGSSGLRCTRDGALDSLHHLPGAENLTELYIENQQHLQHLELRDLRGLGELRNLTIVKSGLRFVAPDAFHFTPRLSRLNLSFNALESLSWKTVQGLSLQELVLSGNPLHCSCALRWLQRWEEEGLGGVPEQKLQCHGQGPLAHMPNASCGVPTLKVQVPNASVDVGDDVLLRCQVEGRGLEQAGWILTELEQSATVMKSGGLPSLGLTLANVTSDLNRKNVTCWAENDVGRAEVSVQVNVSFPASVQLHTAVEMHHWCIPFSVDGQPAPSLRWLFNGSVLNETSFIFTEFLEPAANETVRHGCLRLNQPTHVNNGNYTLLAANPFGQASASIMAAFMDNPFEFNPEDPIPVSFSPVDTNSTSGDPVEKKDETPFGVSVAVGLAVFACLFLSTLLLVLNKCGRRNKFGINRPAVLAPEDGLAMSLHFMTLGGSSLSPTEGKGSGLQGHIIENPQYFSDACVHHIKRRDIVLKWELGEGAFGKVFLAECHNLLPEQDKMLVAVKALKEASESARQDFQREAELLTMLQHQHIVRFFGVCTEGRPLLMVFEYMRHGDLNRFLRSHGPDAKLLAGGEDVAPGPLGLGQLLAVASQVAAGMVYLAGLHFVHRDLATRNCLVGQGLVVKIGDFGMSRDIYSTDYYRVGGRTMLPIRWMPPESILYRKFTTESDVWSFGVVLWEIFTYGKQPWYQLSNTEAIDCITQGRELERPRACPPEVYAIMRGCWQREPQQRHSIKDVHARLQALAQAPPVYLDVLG
# [17] = target: NUAK family SNF1-like kinase 1 (Homo sapiens) (UniProt O60285); assay: Inhibition of ARK5 assessed as enzyme activity at 1 uM relative to untreated control; set-up: scale not given: the % may be the effect or the level left
# [18] = target: Tyrosine-protein kinase Lck (Homo sapiens, UniProt P06239); assay: Inhibition of LCK
# [19] = target: Casein kinase I isoform epsilon (Homo sapiens) (UniProt P49674); assay: Inhibition of CSNK1E assessed as enzyme activity at 1 uM relative to untreated control; set-up: scale not given: the % may be the effect or the level left
# [20] = target: NUAK family SNF1-like kinase 2 (Homo sapiens) (UniProt Q9H093); assay: Inhibition of SNARK assessed as enzyme activity at 1 uM relative to untreated control; set-up: scale not given: the % may be the effect or the level left
# [21] = system: Phosphatidylinositol 4,5-bisphosphate 3-kinase catalytic subunit alpha isoform (Homo sapiens), P42336 [E545K]; assay: Inhibition of PIK3CA E545K mutant assessed as enzyme activity at 1 uM relative to untreated control; set-up: scale not given: the % may be the effect or the level left
# Sequence of Phosphatidylinositol 4,5-bisphosphate 3-kinase catalytic subunit alpha isoform (Homo sapiens), P42336 [E545K] (P42336 whole entry E545K, canonical isoform): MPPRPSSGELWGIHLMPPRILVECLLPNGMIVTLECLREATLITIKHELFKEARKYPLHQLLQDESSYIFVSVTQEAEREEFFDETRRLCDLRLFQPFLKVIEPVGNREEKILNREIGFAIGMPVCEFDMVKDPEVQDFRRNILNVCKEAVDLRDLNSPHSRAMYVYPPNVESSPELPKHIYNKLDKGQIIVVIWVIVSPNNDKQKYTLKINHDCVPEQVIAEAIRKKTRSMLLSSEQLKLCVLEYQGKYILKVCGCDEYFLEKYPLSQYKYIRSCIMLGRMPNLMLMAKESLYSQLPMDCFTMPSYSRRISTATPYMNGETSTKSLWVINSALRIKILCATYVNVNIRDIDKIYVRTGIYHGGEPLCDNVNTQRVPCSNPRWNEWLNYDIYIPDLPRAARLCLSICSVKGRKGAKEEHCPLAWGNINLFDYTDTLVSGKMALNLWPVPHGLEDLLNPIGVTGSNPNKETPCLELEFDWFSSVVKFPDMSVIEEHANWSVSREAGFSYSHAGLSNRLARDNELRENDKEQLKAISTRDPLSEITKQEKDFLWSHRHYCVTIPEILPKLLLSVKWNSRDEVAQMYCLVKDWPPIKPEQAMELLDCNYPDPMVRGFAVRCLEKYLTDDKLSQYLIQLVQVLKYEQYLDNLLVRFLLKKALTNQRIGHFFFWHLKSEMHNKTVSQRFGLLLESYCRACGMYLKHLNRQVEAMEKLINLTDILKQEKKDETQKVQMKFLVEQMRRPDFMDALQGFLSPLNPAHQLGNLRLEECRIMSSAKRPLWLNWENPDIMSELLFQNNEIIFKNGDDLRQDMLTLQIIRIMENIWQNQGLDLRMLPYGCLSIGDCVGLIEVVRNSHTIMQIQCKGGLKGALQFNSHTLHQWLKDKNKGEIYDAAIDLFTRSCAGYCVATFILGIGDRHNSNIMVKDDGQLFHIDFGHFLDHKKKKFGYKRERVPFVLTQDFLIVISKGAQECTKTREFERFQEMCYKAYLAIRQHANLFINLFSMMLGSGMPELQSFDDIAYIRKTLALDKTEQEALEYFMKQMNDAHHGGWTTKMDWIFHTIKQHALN
# [22] = target: cAMP-dependent protein kinase catalytic subunit beta (Homo sapiens) (UniProt P22694); assay: Inhibition of PKACbeta assessed as enzyme activity at 1 uM relative to untreated control; set-up: scale not given: the % may be the effect or the level left
# [23] = target: Cyclin-dependent kinase 16 (Homo sapiens) (UniProt Q00536); assay: Inhibition of PCTK1 assessed as enzyme activity at 1 uM relative to untreated control; set-up: scale not given: the % may be the effect or the level left
# [24] = target: Insulin receptor-related protein (Homo sapiens) (UniProt P14616); assay: Inhibition of INSRR assessed as enzyme activity at 1 uM relative to untreated control; set-up: scale not given: the % may be the effect or the level left
# [25] = target: AP2-associated protein kinase 1 (Homo sapiens) (UniProt Q2M2I8); assay: Inhibition of AAK1 assessed as enzyme activity at 1 uM relative to untreated control; set-up: scale not given: the % may be the effect or the level left
# Sequence of AP2-associated protein kinase 1 (Homo sapiens) (Q2M2I8 whole entry, looked up): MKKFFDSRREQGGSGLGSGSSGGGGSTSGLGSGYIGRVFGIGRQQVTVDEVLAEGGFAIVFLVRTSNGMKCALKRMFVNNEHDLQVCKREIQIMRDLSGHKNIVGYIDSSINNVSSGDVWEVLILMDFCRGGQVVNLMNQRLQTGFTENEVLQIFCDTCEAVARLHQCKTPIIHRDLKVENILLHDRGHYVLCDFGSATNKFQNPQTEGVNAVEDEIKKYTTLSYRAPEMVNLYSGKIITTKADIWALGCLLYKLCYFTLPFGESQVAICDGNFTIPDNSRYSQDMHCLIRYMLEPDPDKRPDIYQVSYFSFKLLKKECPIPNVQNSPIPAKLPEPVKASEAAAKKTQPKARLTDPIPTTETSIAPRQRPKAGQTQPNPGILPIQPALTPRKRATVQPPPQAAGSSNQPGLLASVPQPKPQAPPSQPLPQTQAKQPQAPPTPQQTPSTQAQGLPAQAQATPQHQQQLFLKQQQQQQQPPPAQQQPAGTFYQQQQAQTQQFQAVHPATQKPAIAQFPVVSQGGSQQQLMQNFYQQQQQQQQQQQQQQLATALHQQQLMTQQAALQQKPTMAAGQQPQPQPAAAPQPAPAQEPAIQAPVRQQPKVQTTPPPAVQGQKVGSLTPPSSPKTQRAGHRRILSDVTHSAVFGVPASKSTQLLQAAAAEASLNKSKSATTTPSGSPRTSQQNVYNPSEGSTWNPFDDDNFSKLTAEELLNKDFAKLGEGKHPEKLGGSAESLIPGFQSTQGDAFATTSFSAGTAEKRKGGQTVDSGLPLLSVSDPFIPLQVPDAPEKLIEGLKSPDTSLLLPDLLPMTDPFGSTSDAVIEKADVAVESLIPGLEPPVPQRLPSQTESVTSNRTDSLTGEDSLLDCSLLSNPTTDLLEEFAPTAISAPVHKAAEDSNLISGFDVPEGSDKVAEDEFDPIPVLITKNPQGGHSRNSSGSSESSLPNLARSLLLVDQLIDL
# [26] = target: Fibroblast growth factor receptor 1 (Homo sapiens) (UniProt P11362); assay: Inhibition of FGFR1 assessed as enzyme activity at 1 uM relative to untreated control; set-up: scale not given: the % may be the effect or the level left
# [27] = target: Phosphatidylinositol 4,5-bisphosphate 3-kinase catalytic subunit gamma isoform (Homo sapiens) (UniProt P48736); assay: Inhibition of PIK3CG assessed as enzyme activity at 1 uM relative to untreated control; set-up: scale not given: the % may be the effect or the level left
# [28] = target: 5'-AMP-activated protein kinase catalytic subunit alpha-2 (Homo sapiens) (UniProt P54646); assay: Inhibition of AMPKalpha2 assessed as enzyme activity at 1 uM relative to untreated control; set-up: scale not given: the % may be the effect or the level left
# Sequence of 5'-AMP-activated protein kinase catalytic subunit alpha-2 (Homo sapiens) (P54646 whole entry, looked up): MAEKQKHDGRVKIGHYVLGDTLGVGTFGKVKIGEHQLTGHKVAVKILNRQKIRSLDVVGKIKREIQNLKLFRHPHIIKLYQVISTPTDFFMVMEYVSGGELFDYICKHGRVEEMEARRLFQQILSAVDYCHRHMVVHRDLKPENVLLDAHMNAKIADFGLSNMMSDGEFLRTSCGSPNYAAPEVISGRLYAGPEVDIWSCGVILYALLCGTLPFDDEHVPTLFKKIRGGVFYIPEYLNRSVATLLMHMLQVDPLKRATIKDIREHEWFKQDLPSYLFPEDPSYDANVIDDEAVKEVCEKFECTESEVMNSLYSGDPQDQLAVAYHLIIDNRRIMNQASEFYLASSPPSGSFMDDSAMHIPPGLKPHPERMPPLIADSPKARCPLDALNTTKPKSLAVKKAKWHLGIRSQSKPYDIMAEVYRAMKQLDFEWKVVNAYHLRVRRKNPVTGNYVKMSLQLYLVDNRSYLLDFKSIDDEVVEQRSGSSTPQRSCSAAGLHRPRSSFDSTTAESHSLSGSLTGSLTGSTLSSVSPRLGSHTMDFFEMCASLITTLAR
# [29] = target: Protein kinase C delta type (Homo sapiens) (UniProt Q05655); assay: Inhibition of PRKCdelta assessed as enzyme activity at 1 uM relative to untreated control; set-up: scale not given: the % may be the effect or the level left
# Sequence of Protein kinase C delta type (Homo sapiens) (Q05655 whole entry, looked up): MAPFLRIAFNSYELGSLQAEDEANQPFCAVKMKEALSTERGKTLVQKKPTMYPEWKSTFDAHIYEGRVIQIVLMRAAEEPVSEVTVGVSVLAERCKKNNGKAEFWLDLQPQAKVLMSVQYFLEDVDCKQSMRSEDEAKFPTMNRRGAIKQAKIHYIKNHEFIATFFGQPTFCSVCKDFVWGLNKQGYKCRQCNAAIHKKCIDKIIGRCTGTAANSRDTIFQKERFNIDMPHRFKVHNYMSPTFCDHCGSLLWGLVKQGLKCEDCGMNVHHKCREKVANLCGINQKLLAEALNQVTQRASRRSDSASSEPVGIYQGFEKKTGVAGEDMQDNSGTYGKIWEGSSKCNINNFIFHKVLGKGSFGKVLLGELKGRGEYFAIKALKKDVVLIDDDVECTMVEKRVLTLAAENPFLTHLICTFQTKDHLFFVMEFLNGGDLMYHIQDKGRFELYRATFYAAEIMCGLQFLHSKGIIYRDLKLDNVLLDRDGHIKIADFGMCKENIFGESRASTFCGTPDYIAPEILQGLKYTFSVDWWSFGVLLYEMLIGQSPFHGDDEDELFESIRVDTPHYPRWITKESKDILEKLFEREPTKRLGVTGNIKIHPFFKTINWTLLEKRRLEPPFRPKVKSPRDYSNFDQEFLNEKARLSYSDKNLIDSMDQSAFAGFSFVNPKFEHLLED
# [30] = target: Serine/threonine-protein kinase PAK 4 (Homo sapiens) (UniProt O96013); assay: Inhibition of PAK4 assessed as enzyme activity at 1 uM relative to untreated control; set-up: scale not given: the % may be the effect or the level left
# Sequence of Serine/threonine-protein kinase PAK 4 (Homo sapiens) (O96013 whole entry, looked up): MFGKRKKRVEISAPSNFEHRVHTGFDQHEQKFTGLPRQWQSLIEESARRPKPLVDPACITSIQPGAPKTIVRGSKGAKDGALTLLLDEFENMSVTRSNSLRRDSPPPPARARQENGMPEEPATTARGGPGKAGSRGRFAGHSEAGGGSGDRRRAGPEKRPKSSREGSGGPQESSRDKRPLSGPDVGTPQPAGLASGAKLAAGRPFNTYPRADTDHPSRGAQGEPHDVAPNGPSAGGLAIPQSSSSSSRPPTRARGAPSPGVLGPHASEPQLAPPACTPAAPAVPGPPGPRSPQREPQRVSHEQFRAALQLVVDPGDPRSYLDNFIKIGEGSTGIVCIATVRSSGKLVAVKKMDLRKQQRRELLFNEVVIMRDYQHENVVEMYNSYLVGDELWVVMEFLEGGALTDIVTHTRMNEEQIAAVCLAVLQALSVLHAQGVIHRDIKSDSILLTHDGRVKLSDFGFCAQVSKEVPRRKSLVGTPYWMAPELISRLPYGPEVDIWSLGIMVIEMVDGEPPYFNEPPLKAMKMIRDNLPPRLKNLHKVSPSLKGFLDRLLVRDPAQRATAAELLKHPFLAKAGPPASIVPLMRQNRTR
# [31] = target: Serine/threonine-protein kinase tousled-like 2 (Homo sapiens) (UniProt Q86UE8); assay: Inhibition of TLK2 assessed as enzyme activity at 1 uM relative to untreated control; set-up: scale not given: the % may be the effect or the level left
# [32] = target: Hepatocyte growth factor receptor (Homo sapiens) (UniProt P08581); assay: Inhibition of MET assessed as enzyme activity at 1 uM relative to untreated control; set-up: scale not given: the % may be the effect or the level left
# [33] = system: Tyrosine-protein kinase ABL1 (Homo sapiens), P00519 [T315I]; assay: Inhibition of ABL1 T315I mutant assessed as enzyme activity at 1 uM relative to untreated control; set-up: scale not given: the % may be the effect or the level left
# [34] = target: Activin receptor type-2B (Homo sapiens) (UniProt Q13705); assay: Inhibition of ACVR2B assessed as enzyme activity at 1 uM relative to untreated control; set-up: scale not given: the % may be the effect or the level left
# [35] = target: Serine/threonine-protein kinase PLK3 (Homo sapiens) (UniProt Q9H4B4); assay: Inhibition of PLK3 assessed as enzyme activity at 1 uM relative to untreated control; set-up: scale not given: the % may be the effect or the level left
# [36] = target: Maternal embryonic leucine zipper kinase (Homo sapiens) (UniProt Q14680); assay: Inhibition of MELK assessed as enzyme activity at 1 uM relative to untreated control; set-up: scale not given: the % may be the effect or the level left
# [37] = target: RAC-gamma serine/threonine-protein kinase (Homo sapiens) (UniProt Q9Y243); assay: Inhibition of AKT3 assessed as enzyme activity at 1 uM relative to untreated control; set-up: scale not given: the % may be the effect or the level left
# [38] = Clearance in Sprague-Dawley rat at 2 mg/kg, iv and 5 mg/kg, po; format: ADME, organism-based; settings: in vivo
compound,measurement,setting,value
Cc1ccc2c(Nc3ccc(Cl)cc3)nccc2c1Nc1ncccc1-c1ncnc2[nH]cnc12.Cl.Cl.Cl,Activity,[1],88%
same,Activity,[2],83%
same,Activity,[3],100%
same,Activity,[4],4.7%
same,Activity,[5],22%
same,Activity,[6],100%
same,Activity,[7],100%
same,Activity,[8],89%
same,Activity,[9],52%
same,Activity,[10],87%
same,Activity,[11],2.8%
same,Activity,[12],84%
same,Activity,[13],0.45%
same,Activity,[14],97%
same,Activity,[15],100%
same,Activity,[16],15%
same,Activity,[17],100%
same,IC50,[18],83 nM
same,Activity,[19],99%
same,Activity,[20],100%
same,Activity,[21],100%
same,Activity,[22],94%
same,Activity,[23],98%
same,Activity,[24],78%
same,Activity,[25],92%
same,Activity,[26],80%
same,Activity,[27],100%
same,Activity,[28],96%
same,Activity,[29],88%
same,Activity,[30],92%
same,Activity,[31],100%
same,Activity,[32],73%
same,Activity,[33],72%
same,Activity,[34],100%
same,Activity,[35],98%
same,Activity,[36],100%
same,Activity,[37],96%
same,clearance,[38],6.67 mL/min/kg
